SMILES strings stand for the structures.

The source of these data is patent US11370791B2, “Solid polymorphs of a FLNA-binding compound and its hydrochloride salts” (Pain Therapeutics, Inc., priority 2019, dated 2022).

One series deals with T1, filamin-A (FLNA) (Homo sapiens, UniProt P21333).
T1 construct: in a membrane preparation from A7 cells or SK-N-MC cells; endogenous in cells; host or cells: A7 cells or SK-N-MC cells (membrane preparation)
The following applies: higher affinity binding site of the two sites; membrane preparation from A7 or SK-N-MC cells; cited from earlier work.

Series [1] is described as follows: pKa analysis, potentiometric titration. Type of series: physicochemical. The conditions noted are these: 22° C., ISA water (ionic strength 0.15, KCl). Here is the method: The Compound titration was performed at 22° C. in ISA water. The weighed amount of TC (2.40 mg) was placed into a titration vial. ISA water (15 mL) was delivered automatically to the vial. The pH value of the solution was adjusted to 3 by adding 0.5 M HCl automatically. The titration with 0.5 M KOH was performed automatically until a pH value of 11.5 was reached. One additional mL of ISA water was added to the titration vial to perform the second titration and third titration, per titration respectively. The datasets for the three titrations were combined in the Refinement Pro program to create a Multiset for pKa calculation.
First, the pKa measurements and calculations for Compound C0105 were performed with the presumption that there were two basic ionizable groups. […] Then the pKa calculations for the Compound were performed with the presumption that there was one basic ionizable group.

T1 sequence (P21333 whole entry): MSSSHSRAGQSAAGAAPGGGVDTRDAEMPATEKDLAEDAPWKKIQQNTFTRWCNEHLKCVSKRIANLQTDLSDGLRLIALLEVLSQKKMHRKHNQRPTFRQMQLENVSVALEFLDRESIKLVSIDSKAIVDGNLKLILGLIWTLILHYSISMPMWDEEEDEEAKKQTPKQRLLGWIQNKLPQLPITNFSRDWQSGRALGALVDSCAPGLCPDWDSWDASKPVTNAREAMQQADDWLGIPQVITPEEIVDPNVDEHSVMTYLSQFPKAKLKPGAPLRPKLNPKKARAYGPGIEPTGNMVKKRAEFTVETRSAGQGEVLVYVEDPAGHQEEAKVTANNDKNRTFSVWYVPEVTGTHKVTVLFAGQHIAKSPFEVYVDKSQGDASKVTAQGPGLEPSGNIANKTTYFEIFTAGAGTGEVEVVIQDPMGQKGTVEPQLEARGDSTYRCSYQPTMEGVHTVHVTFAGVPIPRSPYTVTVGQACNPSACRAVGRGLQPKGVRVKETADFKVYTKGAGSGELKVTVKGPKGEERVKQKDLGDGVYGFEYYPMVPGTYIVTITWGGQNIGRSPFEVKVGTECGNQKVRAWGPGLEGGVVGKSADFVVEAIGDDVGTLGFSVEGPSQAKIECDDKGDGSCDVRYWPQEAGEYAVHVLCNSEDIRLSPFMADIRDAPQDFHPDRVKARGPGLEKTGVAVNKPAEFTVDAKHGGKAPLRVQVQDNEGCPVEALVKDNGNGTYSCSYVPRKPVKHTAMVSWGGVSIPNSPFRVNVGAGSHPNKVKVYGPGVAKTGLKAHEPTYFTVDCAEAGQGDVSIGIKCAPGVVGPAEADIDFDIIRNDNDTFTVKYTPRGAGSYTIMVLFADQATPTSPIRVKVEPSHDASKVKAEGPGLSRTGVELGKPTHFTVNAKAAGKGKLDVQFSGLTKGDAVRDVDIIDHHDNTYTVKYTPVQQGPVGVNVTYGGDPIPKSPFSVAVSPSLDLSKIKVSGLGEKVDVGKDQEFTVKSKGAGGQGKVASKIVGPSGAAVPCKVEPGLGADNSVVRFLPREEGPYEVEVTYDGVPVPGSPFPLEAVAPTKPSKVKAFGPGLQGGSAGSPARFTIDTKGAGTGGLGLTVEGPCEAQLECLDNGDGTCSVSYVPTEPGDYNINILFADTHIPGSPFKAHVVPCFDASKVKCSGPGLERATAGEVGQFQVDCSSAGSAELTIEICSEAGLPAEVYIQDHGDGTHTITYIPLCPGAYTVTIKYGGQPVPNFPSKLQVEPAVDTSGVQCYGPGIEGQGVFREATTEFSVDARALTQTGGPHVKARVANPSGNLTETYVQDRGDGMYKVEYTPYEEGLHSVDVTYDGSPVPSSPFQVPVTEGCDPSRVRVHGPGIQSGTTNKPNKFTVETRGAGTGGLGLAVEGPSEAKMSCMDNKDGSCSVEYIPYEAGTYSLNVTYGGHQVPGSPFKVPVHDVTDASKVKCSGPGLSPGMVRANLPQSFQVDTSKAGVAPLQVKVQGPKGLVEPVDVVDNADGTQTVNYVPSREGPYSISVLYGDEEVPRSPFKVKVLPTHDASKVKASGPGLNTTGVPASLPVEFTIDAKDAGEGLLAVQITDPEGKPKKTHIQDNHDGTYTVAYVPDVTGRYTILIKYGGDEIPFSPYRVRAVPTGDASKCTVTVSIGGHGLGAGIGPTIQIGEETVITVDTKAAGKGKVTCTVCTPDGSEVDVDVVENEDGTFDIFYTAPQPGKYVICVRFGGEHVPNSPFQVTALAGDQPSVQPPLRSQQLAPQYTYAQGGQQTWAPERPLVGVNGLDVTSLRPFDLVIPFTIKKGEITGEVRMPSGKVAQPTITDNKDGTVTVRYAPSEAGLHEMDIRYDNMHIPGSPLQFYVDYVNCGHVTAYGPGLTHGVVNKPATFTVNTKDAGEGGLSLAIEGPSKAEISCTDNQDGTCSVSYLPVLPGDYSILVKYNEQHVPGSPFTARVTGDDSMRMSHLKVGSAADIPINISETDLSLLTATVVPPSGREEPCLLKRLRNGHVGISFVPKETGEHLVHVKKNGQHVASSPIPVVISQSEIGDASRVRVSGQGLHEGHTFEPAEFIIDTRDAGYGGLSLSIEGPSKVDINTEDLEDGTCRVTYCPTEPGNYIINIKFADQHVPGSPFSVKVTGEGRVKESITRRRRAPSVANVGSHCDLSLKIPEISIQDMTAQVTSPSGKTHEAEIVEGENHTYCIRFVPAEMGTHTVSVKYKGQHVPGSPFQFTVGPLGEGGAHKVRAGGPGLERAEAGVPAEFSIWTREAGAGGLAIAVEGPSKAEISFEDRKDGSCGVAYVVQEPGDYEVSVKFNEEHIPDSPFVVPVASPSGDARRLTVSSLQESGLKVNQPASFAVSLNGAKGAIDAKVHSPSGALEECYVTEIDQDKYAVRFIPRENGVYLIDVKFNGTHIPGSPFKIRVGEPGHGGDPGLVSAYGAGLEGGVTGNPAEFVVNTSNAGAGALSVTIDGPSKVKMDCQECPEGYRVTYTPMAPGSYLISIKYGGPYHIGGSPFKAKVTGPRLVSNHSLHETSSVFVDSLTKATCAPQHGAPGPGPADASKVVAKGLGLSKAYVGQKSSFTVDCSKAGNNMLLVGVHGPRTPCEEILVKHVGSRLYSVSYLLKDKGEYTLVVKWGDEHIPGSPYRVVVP

Broadly, the pKa is the negative logarithm of the acid dissociation constant. High values mean a group that holds its proton tightly, low ones a group that gives up its proton readily. On to `CN1CCC2(CC1)NCC(=O)N2Cc1ccccc1` [Compound C0105, 1-benzyl-8-methyl-1,4,8-triazaspiro[4.5]-decan-2-one], for which the “EC50, inhibition of [3H]NLX binding” value on filamin-A (FLNA) was 10^−12 to 10^−13 M. Besides, the pKa in series [1] (higher value) stood at 8; in series [1] (lower value), 1.5.
